According to US10760052B2, “Method of inhibiting tau phosphorylation” (priority 2012, dated 2020):

Columns and labels:
[1] = test system: α7nAChR; format: cell-based, rat
[2] = test system: insulin receptor (IR); test: IR activation and signaling (pY1150/1151 IRβ, IRS-1) in slice cultures; format: cell-based, rat; conditions: insulin stimulation
Experimental: IR activation and signaling was initiated by incubation of 6 slices that were further chopped horizontally into 100 μm (100 μm×200 μm×3 mm) with either KR (basal) or KR containing 1 nM insulin at 37° C. for 30 minutes. […] Ligand stimulation was terminated by the addition of 1 ml of ice-cold Ca^2+-free K-R containing mixture of protein phosphatase inhibitors, 0.5 mM EGTA and 0.1 mM EDTA. Brain slices were harvested by a brief centrifugation and were homogenized in 0.25 ml of ice-cold immunoprecipitation buffer. The homogenates were centrifuged at 1000×g for 5 minutes (4° C.) and the supernatant (post-mitochondrial fraction) was sonicated for 10 seconds on ice. […] The resultant lysates were then cleared by centrifugation at 50,000×g for 5 minutes and diluted with 0.75 ml of immunoprecipitation buffer. Protein concentrations were measured by Bradford method (Bio-Rad).
In these experiments, brain slice lysates (100 μg) were immunoprecipitated overnight (about 18 hours) at 4° C. with 2 μg of immobilized anti-IRβ onto covalently conjugated protein A-agarose beads (Pierce-ENDOGEN). […]

[3] = test system: NMDAR; test: Levels of signaling molecules associated with NMDAR (NR1) in slice cultures; format: cell-based, rat; conditions: 0.1 μM Aβ42
Experimental: NMDAR activation and signaling was initiated by incubation of 6 slices with either 0.3 mM Mg^2+ containing KR (LMKR; basal) or LMKR containing 10 μM NMDA and 1 μM glycine at 37° C. for 30 minutes.
Ligand stimulation was terminated by the addition of 1 ml of ice-cold Ca^2+-free K-R containing mixture of protein phosphatase inhibitors, 0.5 mM EGTA and 0.1 mM EDTA. Brain slices were harvested by a brief centrifugation and were homogenized in 0.25 ml of ice-cold immunoprecipitation buffer. The homogenates were centrifuged at 1000×g for 5 minutes (4° C.) and the supernatant (post-mitochondrial fraction) was sonicated for 10 seconds on ice.
The resultant lysates were cleared by centrifugation at 50,000×g for 5 minutes and diluted with 0.75 ml of immunoprecipitation buffer. Protein concentrations were measured by Bradford method (Bio-Rad).
To determine the association of NMDARs with PSD-95, as well as NMDAR signaling, the levels of NMDAR subunits, PSD-95 and NMDAR-associated signaling molecules were measured in anti-NR1 immunoprecipitates. In these studies, brain slice lysates (100 μg) were immunoprecipitated overnight at 4° C. with 2 μg of immobilized anti-NR1 onto covalently conjugated protein A-agarose beads (Pierce-ENDOGEN). […]

[4] = test system: voltage-gated Ca2+ channel mediated Ca2+ influx; format: cell-based, rat; conditions: slice cultures
[5] = test system: α7nAChR (Aβ42 binding); test: FITC-Aβ42 binding to biotinylated α7nAChR-containing SK-N-MC cell fragments; set-up: species or system human; conditions: added simultaneously, 30° C., 30 minutes
[6] = test system: FLNA-TLR4 association; test: FLNA association with TLR4 in organotypic frontocortical slice cultures; format: cell-based, rat; conditions: 100 nM Aβ42, 16 hours, compound added simultaneously
Experimental: (§1) Tissue was harvested and solubilized, and a specific antibody against FLNA was used to immunoprecipitate FLNA and associated proteins. The FLNA immunoprecipitate was size-fractionated using SDS-PAGE, transferred and probed with specific antibodies directed against each of the following receptors: α7nAChR, TLR4, IR and MOR.
(§2) Rat brain slice organotypic culture methods were modified from those published previously. [Adamchik et al., Brain Res Brain Res Protoc 5:153-158 (2000).] FCX slices ([…]) were transferred to sterile, porous Millicell-CM inserts (0.4 μm). Each culture insert unit contained two brain slices and was placed into individual wells of a 12-well culture tray in 2 ml medium: 50% MEM with Earl's salts, 2 mM L-glutamine, 25% Earl's balanced salt solution, 6.5 g/l D-glucose, 20% fetal bovine serum (FBS), 5% horse serum, 25 mM HEPES buffer, pH 7.2, and […]. […]
(§3) The level of FLNA-associated α7nAChRs was determined using a co-immunoprecipitation/Western blotting method as described previously. […] The levels of FLNA-associated α7nAChR, TLR4, IR and MOR were assessed by Western blotting using specific antibodies directed against the respective proteins and the blot stripped and re-probed for FLNA for immunoprecipitation/loading control.

[7] = test system: tau (pSer202, pThr231, pThr181); test: Tau phosphorylation in organotypic frontocortical slice cultures; format: cell-based, rat; conditions: C0105 0.1, 1, 10 nM; C0114 1, 10 nM; simultaneous with Aβ42
Experimental: On the day of study, medium was removed, the brain slices rinsed and incubated in 0.1% FBS-containing medium for 4 hours at 36° C. in 5% CO2.
The levels of phosphorylated tau (pSer202tau, pThr231tau and pThr181tau) as well as total tau precipitated (loading controls) are assessed by Western blotting using specific antibodies directed against each of the phosphoepitopes and the anti-tau, respectively.

[8] = test system: FLNA-α7nAChR association; test: FLNA association with α7nAChR in organotypic frontocortical slice cultures; format: cell-based, rat; conditions: 100 nM Aβ42, 16 hours, compound added simultaneously
Experimental: as §1, §2, §3

[9] = test system: NMDAR; format: cell-based, rat; conditions: slice cultures, 0.1 μM Aβ42

With O=C1CNC2(CCNCC2)N1Cc1ccccc1 [Compound C0114] the “Aβ42-induced impairment in α7nAChR function (calcium influx after PNU282987)” value [1] was “restored functioning of this receptor”, the “Aβ42-induced IR signaling impairments (IRS-1 association, pY1150/1151 IRβ)” value [2] was “normalized the signaling impairments” and the “Levels of six signaling molecules associated with NR1 after NMDA and glycine” value [3] was “fully restored function”. For the same compound, the “Aβ42-induced reduction of K+-evoked calcium influx” value [4] was “completely reversed”, the “Inhibition of FITC-Aβ42 binding” value ([5]; 0.1 nM compound) was 27.8±3.3% and the “Inhibition of FITC-Aβ42 binding” value ([5]; 1 nM compound) was 40.0±2.1%. For the same compound, the “Inhibition of FITC-Aβ42 binding” value ([5]; 10 nM compound) was 53.4±3.6%, the “Aβ42-induced increase in FLNA-TLR4 association” value [6] was “reduced the FLNA-α7AchR association at both concentrations and the FLNA-TLR4 association at 10 nM” and the Aβ42-induced tau phosphorylation [7] was “reduced tau phosphorylation at all three phosphorylation sites”. The “Aβ42-induced increase in FLNA-α7nAChR association” value [8] was “reduced the FLNA-α7AchR association at both concentrations” and the “Aβ42-induced impairment in NMDAR function (calcium influx after NMDA and glycine)” value [9] was “significantly restoring NMDAR function”.
